Experiments:
Type in all cases: cell-based
human TASK-1 [1] = molecular target: T1, human TASK-1 (Homo sapiens (Human), UniProt O14649); test: Two-electrode voltage clamp analysis of human TASK-1 channels in Xenopus laevis oocytes
Protocol: (§1) B-1. In Vitro Electrophysiological Analysis of the Human TASK-1 and TASK-3 Channels Via Two-Electrode Voltage Clamp Technique in Xenopus laevis Oocytes
(§2) Xenopus laevis oocytes were selected as described elsewhere in an exemplary manner [Decher et al., FEBS Lett. 492, 84-89 (2001)]. Subsequently, the oocytes were injected with 0.5-5 ng of a cRNA solution coding for TASK-1 or TASK-3. For the electrophysiological analysis of the channel proteins expressed in the oocytes, the two-electrode voltage clamp technique [Stühmer, Methods Enzymol. 207, 319-339 (1992)] was used. The measurements were carried out as described [Decher et al., FEBS Lett. 492, 84-89 (2001)] at room temperature (21-22° C.) using a Turbo TEC 10CD amplifier (NPI), recorded at 2 kHz and filtered with 0.4 kHz. Substance administration was performed using a gravitation-driven perfusion system. Here, the oocyte is located in a measuring chamber and exposed to the solvent stream of 10 ml/min. The level in the measuring chamber is monitored and regulated by sucking off the solution using a peristaltic pump.

human TASK-3 [2] = molecular target: T2, human TASK-3 (Homo sapiens (Human), UniProt Q9NPC2); test: Two-electrode voltage clamp analysis of human TASK-3 channels in Xenopus laevis oocytes
Protocol: as §1, §2

human TASK-1 [3] = molecular target: T1, human TASK-1; test: Inhibition of recombinant TASK-1 in stably transfected CHO cells (voltage-sensitive dye, FLIPR)
Protocol: (§3) B-2. Inhibition of Recombinant TASK-1 and TASK-3 In Vitro
(§4) The investigations on the inhibition of the recombinant TASK-1 and TASK-3 channels were carried out using stably transfected CHO cells. Here, the compounds according to the invention were tested with administration of 40 mM of potassium chloride in the presence of a voltage-sensitive dye using the method described in detail in the following references [Whiteaker et al., Validation of FLIPR membrane potential dye for high-throughput screening of potassium channel modulators, J. Biomol. Screen. 6 (5), 305-312 (2001); Molecular Devices FLIPR Application Note: Measuring membrane potential using the FLIPR® membrane potential assay kit on Fluorometric Imaging Plate Reader (FLIPR®) systems, http://www.moleculardevices.com/reagents-supplies/assay-kits/ion-channels/flipr-membrane-potential-assay-kits]. The activity of the test substances was determined as their ability to inhibit a depolarization induced in the recombinant cells by 40 mM potassium chloride. The concentration which can block half of this depolarization is referred to as IC50.

human TASK-3 [4] = molecular target: T2, human TASK-3; test: Inhibition of recombinant TASK-3 in stably transfected CHO cells (voltage-sensitive dye, FLIPR)
Protocol: as §3, §4

[5] = oocytes, voltage clamp, Table 1B
[6] = oocytes, voltage clamp, comparative compounds, Table 1B
[7] = Xenopus laevis oocytes, two-electrode voltage clamp, room temperature, Table 1A
[8] = depolarization induced by 40 mM potassium chloride, Table 2A
[9] = 40 mM potassium chloride, comparative compounds, Table 2B

T2 sequence (Q9NPC2 whole entry): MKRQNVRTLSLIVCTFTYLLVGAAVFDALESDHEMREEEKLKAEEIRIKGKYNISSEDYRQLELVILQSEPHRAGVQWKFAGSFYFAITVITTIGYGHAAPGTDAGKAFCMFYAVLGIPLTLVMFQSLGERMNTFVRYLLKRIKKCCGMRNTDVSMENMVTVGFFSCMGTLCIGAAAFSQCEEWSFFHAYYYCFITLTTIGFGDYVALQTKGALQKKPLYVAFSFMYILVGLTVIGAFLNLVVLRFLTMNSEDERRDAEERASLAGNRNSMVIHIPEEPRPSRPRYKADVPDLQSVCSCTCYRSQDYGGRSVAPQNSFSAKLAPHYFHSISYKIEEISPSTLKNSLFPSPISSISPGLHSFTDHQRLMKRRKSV
T1 sequence (O14649 whole entry): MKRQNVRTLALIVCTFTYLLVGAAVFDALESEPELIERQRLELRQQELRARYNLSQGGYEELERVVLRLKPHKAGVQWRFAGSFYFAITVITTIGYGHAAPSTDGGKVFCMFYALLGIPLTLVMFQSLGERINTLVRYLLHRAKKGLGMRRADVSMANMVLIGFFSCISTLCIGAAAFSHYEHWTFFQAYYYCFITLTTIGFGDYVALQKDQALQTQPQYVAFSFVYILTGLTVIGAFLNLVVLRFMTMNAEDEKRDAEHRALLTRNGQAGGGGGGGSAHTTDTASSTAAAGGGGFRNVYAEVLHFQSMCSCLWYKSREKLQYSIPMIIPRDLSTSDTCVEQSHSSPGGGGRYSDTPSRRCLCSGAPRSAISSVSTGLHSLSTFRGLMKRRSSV

| SMILES | IC50 (human TASK-1 [3]; [8]) [µM] | IC50 (human TASK-3 [4]; [8]) [µM] | also measured |
| --- | --- | --- | --- |
| O=C(c1cnccn1)N1CCN(Cc2c(-c3ccc(Cl)cc3)nc3ccc(C4CC4)cn23)CC1 [drawing 126] |  |  | inhibition at 1 µM (human TASK-1 [1]; [5]): 27.7 ± 4.5%; inhibition at 10 µM (human TASK-1 [1]; [5]): 55.2 ± 1.7%; IC50 (human TASK-1 [1]; [6]): > 1 µM; inhibition at 1 µM (human TASK-3 [2]; [5]): 8.1 ± 2.6%; inhibition at 10 µM (human TASK-3 [2]; [5]): 48.2 ± 4.3%; IC50 (human TASK-3 [2]; [6]): > 10 µM |
| COc1cccc(C(=O)N2CCN(Cc3c(-c4ccc(Cl)cc4)nc4ccccn34)CC2)n1 [Example 3, (4-{[2-(4-Chlorophenyl)imidazo [1,2-a]pyridin-3-yl]methyl}piperazin-1-yl)(6-methoxypyridin-2-yl)methanone] | 0.139 | 0.028 | IC50 (human TASK-1 [1]; [7]): 0.0042 ± 0.0006 µM; IC50 (human TASK-3 [2]; [7]): 0.0279 ± 0.004 µM |
| CC(C)Oc1cccc(C(=O)N2CCN(Cc3c(-c4ccc(Cl)cc4)nc4ccccn34)CC2)n1 [Example 39] | 0.44 | 0.056 | IC50 (human TASK-1 [1]; [7]): 0.0134 ± 0.0009 µM; IC50 (human TASK-3 [2]; [7]): 0.0062 ± 0.0011 µM |
| CC(C)c1ccc(-c2nc3ccccn3c2CN2CCN(C(=O)C3CCCC3)CC2)cc1 [Example 54] | 0.479 | 0.225 | IC50 (human TASK-1 [1]; [7]): 0.0043 ± 0.0013 µM; IC50 (human TASK-3 [2]; [7]): 0.0382 ± 0.0014 µM |
| O=C(c1ccncc1)N1CCN(Cc2c(-c3ccc(Cl)cc3)nc3ccc(C4CC4)cn23)CC1 [drawing 124] |  |  | inhibition at 1 µM (human TASK-1 [1]; [5]): 47.2 ± 1.5%; inhibition at 10 µM (human TASK-1 [1]; [5]): 49.9 ± 3.3%; IC50 (human TASK-1 [1]; [6]): > 1 µM; inhibition at 1 µM (human TASK-3 [2]; [5]): 12.1 ± 1.8%; inhibition at 10 µM (human TASK-3 [2]; [5]): 56.1 ± 2.3%; IC50 (human TASK-3 [2]; [6]): > 1 µM |
| COc1cccc(-c2nc3ccccn3c2CN2CCN(C(=O)C3CCC3)CC2)c1 [drawing 125] |  |  | inhibition at 1 µM (human TASK-1 [1]; [5]): 49.6 ± 6.7%; inhibition at 10 µM (human TASK-1 [1]; [5]): 75 ± 3.5%; IC50 (human TASK-1 [1]; [6]): > 1 µM; inhibition at 1 µM (human TASK-3 [2]; [5]): 34.6 ± 2.7%; inhibition at 10 µM (human TASK-3 [2]; [5]): 73.6 ± 3.7%; IC50 (human TASK-3 [2]; [6]): > 1 µM |
| O=C(c1ccccc1Cl)N1CCN(Cc2c(-c3ccc(Cl)cc3)nc3ccccn23)CC1 [Example 37] | 0.37 | 0.06 |  |
| COc1cccc(-c2nc3ccccn3c2CN2CCN(C(=O)C3CCC3)CC2)c1 [WO 2014/187922 Example 208, reference compound] |  |  | IC50 (human TASK-1 [3]; [9]): 30 µM; IC50 (human TASK-3 [4]; [9]): 30 µM |
| O=C(C1CCC1)N1CCN(Cc2c(-c3ccc(Br)cc3)nc3ccccn23)CC1 [Example 11] | 0.378 | 0.24 |  |
| CC(C)c1ccc(-c2nc3ccccn3c2CN2CCN(C(=O)c3ccccc3F)CC2)cc1 [Example 53] | 2.84 | 1 |  |
| O=C(c1ccncc1)N1CCN(Cc2c(-c3ccc(Cl)cc3)nc3ccc(C4CC4)cn23)CC1 [WO 2014/187922 Example 196, reference compound] |  |  | IC50 (human TASK-1 [3]; [9]): 30 µM; IC50 (human TASK-3 [4]; [9]): 30 µM |
| Cc1ccc(-c2nc3ccccn3c2CN2CCN(C(=O)C3CCCCC3)CC2)cc1 [Example 57] | 0.962 | 2.9 |  |
| COc1ccc(C)c(C(=O)N2CCN(Cc3c(-c4ccc(Cl)cc4)nc4ccccn34)CC2)n1 [Example 72] | 0.071 | 0.003 |  |
| O=C(C1CCCCC1)N1CCN(Cc2c(-c3ccc(Cl)cc3)nc3ccccn23)CC1 [Example 17] | 0.774 | 0.51 |  |
| COc1cccc(C(=O)N2CCN(Cc3c(-c4ccc(C(C)(C)C)cc4)nc4ccccn34)CC2)n1 [Example 64] | 0.51 | 0.45 |  |
| Cc1ccc(F)cc1C(=O)N1CCN(Cc2c(-c3ccc(Br)cc3)nc3ccccn23)CC1 [Example 15] | 1.17 | 0.38 |  |

| SMILES | IC50 (human TASK-1 [3]; [8]) [µM] | IC50 (human TASK-3 [4]; [8]) [µM] | also measured |
| --- | --- | --- | --- |
| O=C(c1cccc(OCC(F)(F)F)n1)N1CCN(Cc2c(-c3ccc(Cl)cc3)nc3ccccn23)CC1 [Example 38] | 1 | 0.03 |  |
| O=C(c1ccccc1Cl)N1CCN(Cc2c(-c3ccc(Cl)cc3)nc3ccc(-c4ccccc4)cn23)CC1 [WO 2014/187922 Example 64, reference compound] |  |  | IC50 (human TASK-1 [3]; [9]): 30 µM; IC50 (human TASK-3 [4]; [9]): 2.2 µM |
| COc1ccc(Cl)c(C(=O)N2CCN(Cc3c(-c4ccc(Cl)cc4)nc4ccccn34)CC2)c1 [Example 29] | 1.2 | 0.099 |  |
| COc1ccc(F)c(C(=O)N2CCN(Cc3c(-c4ccc(Cl)cc4)nc4ccccn34)CC2)n1 [Example 68, (4-{[2-(4-Chlorophenyl)imidazo[1,2-a]pyridin-3-yl]methyl}piperazin-1-yl)(3-fluoro-6-methoxypyridin-2-yl)methanone] | 0.093 | 0.0052 |  |
| O=C(C1CCCCO1)N1CCN(Cc2c(-c3ccc(Cl)cc3)nc3ccccn23)CC1 (stereo not shown) [Example 30] | 1.8 | 0.4 |  |
| N#Cc1ccc(-c2nc3ccccn3c2CN2CCN(C(=O)C3CCCC3)CC2)cc1 [Example 62] | 1.2 | 3.1 |  |
| N#Cc1ccc(-c2nc3ccccn3c2CN2CCN(C(=O)C3CCCCC3)CC2)cc1 [Example 63] | 1.3 | 1.6 |  |
| O=C(c1cccc(F)c1)N1CCN(Cc2c(-c3ccc(Cl)cc3)nc3ccc(C4CC4)cn23)CC1 [drawing 123] |  |  | inhibition at 1 µM (human TASK-1 [1]; [5]): 30 ± 3.3%; inhibition at 10 µM (human TASK-1 [1]; [5]): 59.9 ± 1.7%; IC50 (human TASK-1 [1]; [6]): > 1 µM; inhibition at 1 µM (human TASK-3 [2]; [5]): 29.7 ± 2.6%; inhibition at 10 µM (human TASK-3 [2]; [5]): 56.1 ± 4.6%; IC50 (human TASK-3 [2]; [6]): > 1 µM |
| O=C(c1cccc(OC(F)(F)F)c1)N1CCN(Cc2c(-c3ccc(Cl)cc3)nc3ccccn23)CC1 [Example 24] | 1.14 | 0.81 |  |
| Cc1ccccc1C(=O)N1CCN(Cc2c(-c3ccc(Br)cc3)nc3ccccn23)CC1 [Example 14] | 0.481 | 0.31 |  |
| COc1cccc(C(=O)N2CCN(Cc3c(-c4ccc(Br)cc4)nc4ccccn34)CC2)c1 [Example 5, (4-{[2-(4-Bromophenyl)imidazo[1,2-a]pyridin-3-yl]methyl}piperazin-1-yl)(3-methoxyphenyl)methanone] | 0.827 | 0.38 |  |
| O=C(c1ccccc1Cl)N1CCN(Cc2c(-c3ccc(Cl)cc3)nc3ccc(-c4ccccc4)cn23)CC1 [drawing 122] |  |  | inhibition at 1 µM (human TASK-1 [1]; [5]): 6.3 ± 1.4%; inhibition at 10 µM (human TASK-1 [1]; [5]): 16.9 ± 3.2%; IC50 (human TASK-1 [1]; [6]): > 30 µM; inhibition at 1 µM (human TASK-3 [2]; [5]): 9.3 ± 3.4%; inhibition at 10 µM (human TASK-3 [2]; [5]): 19.4 ± 4.6%; IC50 (human TASK-3 [2]; [6]): > 30 µM |
| O=C(C1CCCC1)N1CCN(Cc2c(-c3ccc(F)cc3)nc3ccccn23)CC1 [Example 48] | 0.551 | 0.83 |  |
| COc1ccccc1C(=O)N1CCN(Cc2c(-c3ccc(Cl)cc3)nc3ccccn23)CC1 [Example 20] | 0.305 | 0.052 |  |
| COc1cccc(C(=O)N2CCN(Cc3c(-c4ccc(C#N)cc4)nc4ccccn34)CC2)n1 [Example 61] | 2.05 | 1.4 |  |

Reference: patent publication US10759794B2, “2-phenyl-3-(piperazinomethyl)imidazo[1,2-A]pyridine derivatives as blockers of task-1 and task-2 channels, for the treatment of sleep-related breathing disorders” (BAYER PHARMA AKTIENGESELLSCHAFT, priority 2015, dated 2020)
